Reference: EP1935986B1, “Luminogenic and fluorogenic compounds and methods to detect molecules or conditions” (priority 2005, dated 2006)
One block for each compound: values may come before it.

Legend:
[1] = system: panel of recombinant human P450s; test: Two-step luminescent P450 screen of luciferin derivatives, whole panel incl. HLM; assay type: biochemical; settings: 50 µM substrate; result in words
Experimental: In addition, it was also of interest to identify substrates with improved selectivity for single P450 enzymes. […] Derivatives useful as P450 substrates may be employed in assays to detect inhibitors for particular P450 enzymes (see Figures 17-18).
(§1) P450s are Supersomes™ purchased from Discovery Labware (BD/Gentest). […] HLM is human liver microsomes.
(§2) 1X substrate concentration: 50 µM.

CYP1A2 = molecular target: T1, CYP1A2 (Homo sapiens, UniProt P05177); test: Two-step luminescent P450 screen of luciferin derivatives; assay type: biochemical; settings: 50 µM substrate, 1 pmole P450, result in words
T1 construct: purchased Discovery Labware (BD/Gentest); host or cells: insect cell expression system (membrane fractions)
T1 sequence (P05177 2-516 limits assumed): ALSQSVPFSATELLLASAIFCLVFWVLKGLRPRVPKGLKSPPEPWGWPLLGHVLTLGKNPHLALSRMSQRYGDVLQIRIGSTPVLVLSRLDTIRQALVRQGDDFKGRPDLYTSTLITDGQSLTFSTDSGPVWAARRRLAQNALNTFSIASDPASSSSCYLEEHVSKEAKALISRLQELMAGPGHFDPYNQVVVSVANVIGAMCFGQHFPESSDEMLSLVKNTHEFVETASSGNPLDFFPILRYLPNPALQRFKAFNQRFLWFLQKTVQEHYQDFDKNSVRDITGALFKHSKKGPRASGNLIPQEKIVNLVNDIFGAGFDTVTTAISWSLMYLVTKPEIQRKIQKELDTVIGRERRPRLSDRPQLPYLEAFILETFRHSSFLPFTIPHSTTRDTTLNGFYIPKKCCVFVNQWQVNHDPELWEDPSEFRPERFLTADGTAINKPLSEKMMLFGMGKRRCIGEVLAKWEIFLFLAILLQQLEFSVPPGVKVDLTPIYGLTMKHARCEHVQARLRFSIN
Experimental: as §1, §2

CYP2C9 = molecular target: T2, CYP2C9 (Homo sapiens, UniProt P11712); test: as above; assay type: biochemical; settings: 50 µM substrate, 1 pmole P450, result in words
T2 construct: purchased Discovery Labware (BD/Gentest); host or cells: insect cell expression system (membrane fractions)
T2 sequence (P11712 whole entry): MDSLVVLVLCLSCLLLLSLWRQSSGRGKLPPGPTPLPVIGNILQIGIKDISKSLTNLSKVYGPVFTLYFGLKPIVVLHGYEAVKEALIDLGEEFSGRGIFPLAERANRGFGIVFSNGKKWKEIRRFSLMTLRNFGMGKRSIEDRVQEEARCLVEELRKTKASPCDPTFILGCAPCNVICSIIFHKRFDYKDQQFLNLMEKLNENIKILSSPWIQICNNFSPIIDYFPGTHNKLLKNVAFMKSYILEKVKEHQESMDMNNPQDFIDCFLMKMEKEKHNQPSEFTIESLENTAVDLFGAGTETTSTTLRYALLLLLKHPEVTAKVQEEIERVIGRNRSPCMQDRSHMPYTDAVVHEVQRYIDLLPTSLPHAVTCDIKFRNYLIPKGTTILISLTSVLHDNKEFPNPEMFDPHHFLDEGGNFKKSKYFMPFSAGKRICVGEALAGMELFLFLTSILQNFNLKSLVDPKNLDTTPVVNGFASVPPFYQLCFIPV
Experimental: as §1, §2

CYP4A11 = molecular target: T3, CYP4A11 (Homo sapiens, UniProt Q02928); test: as above; assay type: biochemical; settings: result in words
T3 construct: purchased Discovery Labware (BD/Gentest); host or cells: insect cell expression system (membrane fractions)
T3 sequence (Q02928 5-519): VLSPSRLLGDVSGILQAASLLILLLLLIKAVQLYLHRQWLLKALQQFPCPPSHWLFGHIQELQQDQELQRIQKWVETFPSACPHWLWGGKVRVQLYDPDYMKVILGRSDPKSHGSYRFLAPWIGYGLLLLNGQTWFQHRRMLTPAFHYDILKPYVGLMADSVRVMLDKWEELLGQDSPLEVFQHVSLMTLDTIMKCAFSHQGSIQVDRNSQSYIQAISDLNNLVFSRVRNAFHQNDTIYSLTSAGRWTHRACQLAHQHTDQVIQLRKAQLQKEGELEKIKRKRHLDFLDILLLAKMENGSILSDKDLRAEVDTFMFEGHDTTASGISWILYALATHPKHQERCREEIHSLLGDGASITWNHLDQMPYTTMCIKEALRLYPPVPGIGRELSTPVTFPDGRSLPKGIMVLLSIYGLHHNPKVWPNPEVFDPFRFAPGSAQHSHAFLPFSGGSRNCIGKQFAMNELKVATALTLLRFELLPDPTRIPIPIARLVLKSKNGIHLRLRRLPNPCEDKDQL
Experimental: as §1, §2

CYP1A1 = molecular target: T4, CYP1A1 (Homo sapiens, UniProt P04798); test: as above; settings: 50 µM substrate, 1 pmole P450, 37°C 30 minutes; result in words
T4 sequence (P04798 1-512): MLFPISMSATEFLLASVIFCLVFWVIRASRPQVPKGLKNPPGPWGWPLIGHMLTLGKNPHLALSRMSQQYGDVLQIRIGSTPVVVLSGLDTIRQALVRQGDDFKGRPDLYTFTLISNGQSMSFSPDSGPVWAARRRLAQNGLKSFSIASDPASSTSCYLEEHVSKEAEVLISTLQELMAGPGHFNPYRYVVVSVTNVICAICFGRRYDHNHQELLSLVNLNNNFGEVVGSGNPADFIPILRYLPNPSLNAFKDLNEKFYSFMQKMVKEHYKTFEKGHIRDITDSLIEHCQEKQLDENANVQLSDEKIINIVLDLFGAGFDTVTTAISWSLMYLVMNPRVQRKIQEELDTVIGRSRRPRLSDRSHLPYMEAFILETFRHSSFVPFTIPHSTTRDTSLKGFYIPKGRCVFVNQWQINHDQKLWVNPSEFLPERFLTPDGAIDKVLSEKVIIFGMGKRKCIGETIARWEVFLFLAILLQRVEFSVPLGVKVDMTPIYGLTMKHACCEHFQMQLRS

CYP2C8 = molecular target: T5, CYP2C8 (Homo sapiens, UniProt P10632); test: as above; settings: 50 µM substrate, 1 pmole P450, result in words
T5 sequence (P10632 1-490): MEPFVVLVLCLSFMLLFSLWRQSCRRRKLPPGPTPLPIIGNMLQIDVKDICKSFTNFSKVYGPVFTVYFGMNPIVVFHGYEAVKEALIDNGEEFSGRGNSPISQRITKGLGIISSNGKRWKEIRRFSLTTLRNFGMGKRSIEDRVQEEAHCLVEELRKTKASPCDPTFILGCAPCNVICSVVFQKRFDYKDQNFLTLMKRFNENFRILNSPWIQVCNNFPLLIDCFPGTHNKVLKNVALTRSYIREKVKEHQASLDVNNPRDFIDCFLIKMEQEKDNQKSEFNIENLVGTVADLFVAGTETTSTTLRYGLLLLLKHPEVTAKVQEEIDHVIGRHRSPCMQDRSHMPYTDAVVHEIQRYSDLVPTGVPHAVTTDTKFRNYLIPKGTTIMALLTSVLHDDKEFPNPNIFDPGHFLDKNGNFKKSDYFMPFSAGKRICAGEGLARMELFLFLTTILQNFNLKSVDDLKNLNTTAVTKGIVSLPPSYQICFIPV

CYP3A7 = CYP3A7 (Homo sapiens, UniProt P24462); test: as above; settings: result in words
Chain of CYP3A7 (P24462 whole entry): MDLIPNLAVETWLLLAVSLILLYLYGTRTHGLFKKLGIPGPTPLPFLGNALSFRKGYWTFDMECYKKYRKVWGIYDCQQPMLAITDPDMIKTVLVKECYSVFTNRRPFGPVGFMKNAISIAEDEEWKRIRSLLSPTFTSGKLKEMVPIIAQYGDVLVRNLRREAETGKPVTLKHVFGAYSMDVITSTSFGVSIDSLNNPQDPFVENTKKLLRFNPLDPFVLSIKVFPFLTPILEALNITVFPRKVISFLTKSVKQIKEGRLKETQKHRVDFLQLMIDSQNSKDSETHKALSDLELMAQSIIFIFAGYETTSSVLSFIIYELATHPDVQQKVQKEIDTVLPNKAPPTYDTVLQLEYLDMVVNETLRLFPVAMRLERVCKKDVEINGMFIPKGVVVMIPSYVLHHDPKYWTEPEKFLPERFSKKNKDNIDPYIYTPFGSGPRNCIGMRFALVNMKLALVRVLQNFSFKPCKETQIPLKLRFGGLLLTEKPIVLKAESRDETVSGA

porcine esterase = test: Two-step luminescent carboxylesterase assay with D-luciferin esters; assay type: biochemical; settings: result in words
Source text: D-luciferin esters were substrates for carboxylesterases in a two step luminescent assay format similar to that used for P450s. […] Though signals varied between P450 preparations no P450 preparation was much brighter than the control. It seems likely then that the signals were not due to P450 activity in the preparations hut rather, variable amounts of carboxyl esterase activities. Methyl, ethyl and picolinyl esters of D-luciferin were also characterized as substrates for a purified preparation of porcine esterase without any p450. In this format each ester linked group was cleaved by the esterase to yield D-luciferin that in turn reacted with luciferase to make light.

Compound: Nc1ccc(Oc2ccc3nc(C4=N[C@@H](C(=O)O)CS4)ccc3c2)cc1 [6(p-aminophenyloxy)-quinolylluciferin]
luminescent signals with the panel of P450 enzymes [1]: did not produce large luminescent signals with any P450

P450 activity / selectivity with the derivative as substrate (CYP1A2): enhanced selectivity
P450 activity / selectivity with the derivative as substrate (CYP1A2; listed as line 11): preferred substrate
P450 activity / selectivity with the derivative as substrate (CYP2C9): enhanced selectivity
P450 activity / selectivity with the derivative as substrate (CYP2C9; listed as line 11): preferred substrate
P450 activity / selectivity with the derivative as substrate (CYP4A11): did not react
P450 activity / selectivity with the derivative as substrate (CYP1A1): preferred substrate
P450 activity / selectivity with the derivative as substrate (CYP2C8): enhanced selectivity
P450 activity / selectivity with the derivative as substrate (CYP2C8; listed as line 11): preferred substrate
Compound: COc1cc(C)c2nc(C3=NC(C(=O)O)CS3)sc2c1 (centres unmarked) [4-methyl-6-(O-methyl)-luciferin]

P450 activity / selectivity with the derivative as substrate (CYP1A2): enhanced selectivity
P450 activity / selectivity with the derivative as substrate (CYP1A2; listed as line 12): preferred substrate
P450 activity / selectivity with the derivative as substrate (CYP2C9): enhanced selectivity
P450 activity / selectivity with the derivative as substrate (CYP2C9; listed as line 12): preferred substrate
P450 activity / selectivity with the derivative as substrate (CYP4A11): did not react
P450 activity / selectivity with the derivative as substrate (CYP1A1): preferred substrate
P450 activity / selectivity with the derivative as substrate (CYP2C8): enhanced selectivity
P450 activity / selectivity with the derivative as substrate (CYP2C8; listed as line 12): preferred substrate
Compound: COc1cc(OC)c2nc(C3=NC(C(=O)O)CS3)sc2c1 (centres unmarked) [4-(O-methyl)-6-(O-methyl)-luciferin]

P450 activity / selectivity with the derivative as substrate (CYP3A7): selective
Compound: bis-luciferin-xylyldiether

P450 activity / selectivity with the derivative as substrate (CYP3A7): showed selectivity
Compound: O=C(O)[C@H]1CSC(c2nc3ccc(OCSc4ccc(Cl)cc4)cc3s2)=N1 [6'-p-chlorophenylthiol-methoxy-luciferin, 6-(4-Chloro-phenylthiomethoxy) luciferin]

P450 activity / selectivity with the derivative as substrate (CYP2C9): preferred substrate
P450 activity / selectivity with the derivative as substrate (CYP4A11): preferred substrate
Compound: COc1cc2nc(C3=NC(C(=O)O)CS3)sc2cc1OC (centres unmarked) [5,6-dimethoxyluciferin]
luminescent signals with the panel of P450 enzymes [1]: did not produce large luminescent signals with any P450

substrate for carboxylesterases in a two step luminescent assay format (porcine esterase): effective
Compound: O=C(OCc1cccnc1)[C@H]1CSC(c2nc3ccc(O)cc3s2)=N1 [D-luciferin picolinyl ester, m-picolinyl ester of luciferin]

P450 activity / selectivity with the derivative as substrate (CYP3A7): cross reacted significantly
Compound: O=C(O)[C@H]1CSC(c2nc3ccc(OCc4cccnc4)cc3s2)=N1 [luciferin 6' 3-picolinyl ether, reference compound]

substrate for carboxylesterases in a two step luminescent assay format (porcine esterase): effective
Compound: CCOC(=O)[C@H]1CSC(c2nc3ccc(O)cc3s2)=N1 [D-luciferin ethyl ester]

substrate for carboxylesterases in a two step luminescent assay format (porcine esterase): effective
Compound: COC(=O)[C@H]1CSC(c2nc3ccc(O)cc3s2)=N1 [D-luciferin methyl ester]
